In patent US8008298B2, “Pyrrolopyrazine kinase inhibitors” (Roche Palo Alto, priority 2008, dated 2011):

Row | SMILES | melting point
1 | Cc1nnc(-c2ccc(-c3cnc4[nH]cc(C(=O)C(C)(C)C)c4n3)cc2)o1 [Example I-357, 2,2-Dimethyl-1-{2-[4-(5-methyl-[1,3,4]oxadiazol-2-yl)-phenyl]-5H-pyrrolo[2,3-b]pyrazin-7-yl}-propan-1-one] | > 300 °C
2 | COc1cc(-c2cnc3[nH]cc(C(=O)C4(C)CCCC4)c3n2)cc(OC)c1OC [Example 147, (1-Methyl-cyclopentyl)-[2-(3,4,5-trimethoxy-phenyl)-5H-pyrrolo[2,3-b]pyrazin-7-yl]-methanone] | 244 to 246 °C
3 | CC(C)(C)C(=O)c1c[nH]c2ncc(-c3cccc(C(=O)NC4CCCC4)c3)nc12 [Example I-136, N-Cyclopentyl-3-[7-(2,2-dimethyl-propionyl)-5H-pyrrolo[2,3-b]pyrazin-2-yl]-benzamide] | 227 to 228.5 °C
4 | COc1ccc(-c2cnc3[nH]cc(C(N)=O)c3n2)cc1OC [Example 18, 2-(3,4-Dimethoxy-phenyl)-5H-pyrrolo[2,3-b]pyrazine-7-carboxylic acid amide] | 290 to 292.4 °C
5 | CC(C)(C)C(=O)c1c[nH]c2ncc(-c3cccc(S(N)(=O)=O)c3)nc12 [Example 144, 3-[7-(2,2-Dimethyl-propionyl)-5H-pyrrolo[2,3-b]pyrazin-2-yl]-benzenesulfonamide] | 275 to 277 °C
6 | CC(C)(C)C(=O)c1c[nH]c2ncc(-c3cccc(-c4cnc[nH]4)c3)nc12 [Example I-346, 1-{2-[3-(3H-Imidazol-4-yl)-phenyl]-5H-pyrrolo[2,3-b]pyrazin-7-yl}-2,2-dimethyl-propan-1-one] | 287 to 288 °C
7 | CC(C)(C)C(=O)c1c[nH]c2ncc(-c3cccc(N4CCCC4)c3)nc12 [Example 33, 2,2-dimethyl-1-[2-(3-pyrrolidin-1-yl-phenyl)-5H-pyrrolo[2,3-b]pyrazin-7-yl]-propan-1-one] | 259 to 260 °C
8 | CC(C)Oc1cc(-c2cnc3[nH]cc(C(=O)C(C)(C)C)c3n2)cc(N2CCCC2)c1 [Example I-152, 1-[2-(3-Isopropoxy-5-pyrrolidin-1-yl-phenyl)-5H-pyrrolo[2,3-b]pyrazin-7-yl]-2,2-dimethyl-propan-1-one] | 233 to 235 °C
9 | CC(C)c1cccc(-c2cnc3[nH]cc(C(=O)C(C)(C)C)c3n2)c1 [Example I-337, 1-[2-(3-Isopropyl-phenyl)-5H-pyrrolo[2,3-b]pyrazin-7-yl]-2,2-dimethyl-propan-1-one] | 197 to 198 °C
10 | CC(=O)N1CCN(c2ccc(-c3cnc4[nH]cc(C(=O)C(C)(C)C)c4n3)cc2)CC1 [Example I-99, 1-{2-[4-(4-Acetyl-piperazin-1-yl)-phenyl]-5H-pyrrolo[2,3-b]pyrazin-7-yl}-2,2-dimethyl-propan-1-one] | 266 to 267 °C
11 | CC(C)(C)C(=O)c1c[nH]c2ncc(-c3cccc(-n4cccc4)c3)nc12 [Example 232, 2,2-Dimethyl-1-[2-(3-pyrrol-1-yl-phenyl)-5H-pyrrolo[2,3-b]pyrazin-7-yl]-propan-1-one] | 220 to 222 °C
12 | CC(=O)Nc1ccc(S(=O)(=O)Nc2cccc(-c3cnc4[nH]cc(C(=O)C(C)(C)C)c4n3)c2)cc1 [Example I-412, N-(4-{3-[7-(2,2-Dimethyl-propionyl)-5H-pyrrolo[2,3-b]pyrazin-2-yl]-phenylsulfamoyl}-phenyl)-acetamide] | 226 to 228 °C
13 | CC(C)(C)C(=O)c1c[nH]c2ncc(-c3cccc(N4CCN(C(=O)CC#N)CC4)c3)nc12 [Example 90, 3-(4-{3-[7-(2,2-Dimethyl-propionyl)-5H-pyrrolo[2,3-b]pyrazin-2-yl]-phenyl}-piperazin-1-yl)-3-oxo-propionitrile] | 240 to 242 °C
14 | COc1cc(-c2cnc3[nH]cc(C(=O)C4(C)CCC(O)CC4)c3n2)cc(OC)c1OC (stereo not drawn) [Example 191, (4-Hydroxy-1-methyl-cyclohexyl)-[2-(3,4,5-trimethoxy-phenyl)-5H-pyrrolo[2,3-b]pyrazin-7-yl]-methanone] | 242 to 244 °C
15 | CC(C)CC(=O)c1c[nH]c2ncc(-c3cccc(N4CCCC4)c3)nc12 [Example I-6, 3-Methyl-1-[2-(3-pyrrolidin-1-yl-phenyl)-5H-pyrrolo[2,3-b]pyrazin-7-yl]-butan-1-one] | 260 to 261 °C
16 | CC(C)(C)C(=O)c1c[nH]c2ncc(-c3cccc(C#N)c3)nc12 [Example 237, 3-[7-(2,2-Dimethyl-propionyl)-5H-pyrrolo[2,3-b]pyrazin-2-yl]-benzonitrile] | 248 to 249 °C
17 | C[S+]([O-])c1ccc(-c2cnc3[nH]cc(C(=O)C(C)(C)C)c3n2)cc1N1CCCC1 (stereo not drawn) [Example 107, 1-[2-(4-Methanesulfinyl-3-pyrrolidin-1-yl-phenyl)-5H-pyrrolo[2,3-b]pyrazin-7-yl]-2,2-dimethyl-propan-1-one] | 150 to 152 °C
18 | CNC(=O)C1(C)CCN(c2cccc(-c3cnc4[nH]cc(C(=O)C(C)(C)C)c4n3)c2)C1 (stereo not drawn) [Example 210, 1-{3-[7-(2,2-Dimethyl-propionyl)-5H-pyrrolo[2,3-b]pyrazin-2-yl]-phenyl}-3-methyl-pyrrolidine-3-carboxylic acid methylamide] | 252 to 254 °C

Row | SMILES | melting point
19 | COc1ccc(F)cc1-c1cnc2[nH]cc(C(=O)CC(C)C)c2n1 [Example I-5, 1-[2-(5-Fluoro-2-methoxy-phenyl)-5H-pyrrolo[2,3-b]pyrazin-7-yl]-3-methyl-butan-1-one] | 186 to 187 °C
20 | Cc1ccc(-c2cnc3[nH]cc(C(=O)C(C)(C)C)c3n2)cc1NS(=O)(=O)c1ccc(N)cc1 [Example I-416, 4-Amino-N-{5-[7-(2,2-dimethyl-propionyl)-5H-pyrrolo[2,3-b]pyrazin-2-yl]-2-methyl-phenyl}-benzenesulfonamide] | 264 to 266 °C
21 | COc1cc(-c2cnc3[nH]cc(C(=O)NCC(C)(C)CO)c3n2)cc(OC)c1OC [Example 15, 2-(3,4,5-Trimethoxy-phenyl)-5H-pyrrolo[2,3-b]pyrazine-7-carboxylic acid (3-hydroxy-2,2-dimethyl-propyl)-amide] | 224 to 225 °C
22 | CCOc1cc(-c2cnc3[nH]cc(C(=O)C(C)(C)C)c3n2)cc(N2CCCC2)c1 [Example 262, 1-[2-(3-Ethoxy-5-pyrrolidin-1-yl-phenyl)-5H-pyrrolo[2,3-b]pyrazin-7-yl]-2,2-dimethyl-propan-1-one] | 236 to 237 °C
23 | CC(C)(C)C(=O)c1c[nH]c2ncc(-c3ccc(N4CCNCC4)cc3)nc12 [Example I-45, 2,2-Dimethyl-1-[2-(4-piperazin-1-yl-phenyl)-5H-pyrrolo[2,3-b]pyrazin-7-yl]-propan-1-one] | 234 to 246 °C
24 | COc1cc(-c2cnc3[nH]cc(C(=O)NCC(C)O)c3n2)cc(OC)c1OC (stereo not drawn) [Example 22, 2-(3,4,5-Trimethoxy-phenyl)-5H-pyrrolo[2,3-b]pyrazine-7-carboxylic acid (2-hydroxy-propyl)-amide] | 201.9 to 202.6 °C
25 | CC1(C(=O)c2c[nH]c3ncc(-c4cccc(N5CCCC5)c4)nc23)CC[C@@H]2CCC[C@@H]21 (stereo partly drawn) [Example 215, ((3aS,6aS)-1-Methyl-octahydro-pentalen-1-yl)-[2-(3-pyrrolidin-1-yl-phenyl)-5H-pyrrolo[2,3-b]pyrazin-7-yl]-methanone] | 200 to 202 °C
26 | CCNC1CCN(c2cccc(-c3cnc4[nH]cc(C(=O)C(C)(C)C)c4n3)c2)C1 (stereo not drawn) [Example 208, 1-{2-[3-(3-Ethylamino-pyrrolidin-1-yl)-phenyl]-5H-pyrrolo[2,3-b]pyrazin-7-yl}-2,2-dimethyl-propan-1-one] | 200 to 202 °C
27 | CC(C)(C)C(=O)c1c[nH]c2ncc(-c3ccc(-c4ccccc4)cc3)nc12 [Example I-355, 1-(2-Biphenyl-4-yl-5H-pyrrolo[2,3-b]pyrazin-7-yl)-2,2-dimethyl-propan-1-one] | 275 to 277 °C
28 | CC(C)(C)C(=O)c1c[nH]c2ncc(-c3cccc(CCCO)c3)nc12 [Example 143, 1-{2-[3-(3-Hydroxy-propyl)-phenyl]-5H-pyrrolo[2,3-b]pyrazin-7-yl}-2,2-dimethyl-propan-1-one] | 170 to 171 °C
29 | CC1(C(=O)c2c[nH]c3ncc(-c4cccc(N5CCCC5)c4)nc23)CCCCC1 [Example 36, (1-Methyl-cyclohexyl)-[2-(3-pyrrolidin-1-yl-phenyl)-5H-pyrrolo[2,3-b]pyrazin-7-yl]-methanone] | 243 to 245.4 °C
30 | CC(C)(C)C(=O)c1c[nH]c2ncc(-c3cccc(N4CCS(=O)(=O)CC4)c3)nc12 [Example 230, 1-{2-[3-(1,1-Dioxo-1lambda*6*-thiomorpholin-4-yl)-phenyl]-5H-pyrrolo[2,3-b]pyrazin-7-yl}-2,2-dimethyl-propan-1-one] | 279 to 280 °C
31 | COc1ccc(-c2cnc3[nH]cc(C(=O)NC4CCN(C)C4)c3n2)cc1OC (stereo not drawn) [Example 25, 2-(3,4-Dimethoxy-phenyl)-5H-pyrrolo[2,3-b]pyrazine-7-carboxylic acid (1-methyl-pyrrolidin-3-yl)-amide] | 193 to 194 °C
32 | CC(C)(C)C(=O)c1c[nH]c2ncc(-c3cccc(-c4ccccc4)c3)nc12 [Example I-335, 1-(2-Biphenyl-3-yl-5H-pyrrolo[2,3-b]pyrazin-7-yl)-2,2-dimethyl-propan-1-one] | 219.9 to 221.1 °C
33 | COc1ccc(-c2cnc3[nH]cc(C(=O)C(C)(C)C)c3n2)cc1 [Example 98, 1-[2-(4-Methoxy-phenyl)-5H-pyrrolo[2,3-b]pyrazin-7-yl]-2,2-dimethyl-propan-1-one] | 207 to 208 °C
34 | CC(C)(C)C(=O)c1c[nH]c2ncc(-c3cccc(CCO)c3)nc12 [Example 148, 1-{2-[3-(2-Hydroxy-ethyl)-phenyl]-5H-pyrrolo[2,3-b]pyrazin-7-yl}-2,2-dimethyl-propan-1-one] | 202 to 203 °C
35 | COc1cc(-c2cnc3[nH]cc(C(=O)C45CC6CC(CC(C6)C4)C5)c3n2)cc(OC)c1OC [Example 162, Adamantan-1-yl-[2-(3,4,5-trimethoxy-phenyl)-5H-pyrrolo[2,3-b]pyrazin-7-yl]-methanone] | 267 to 268 °C
36 | CC(C)(C)C(=O)c1c[nH]c2ncc(-c3cccc(N4CC5(COC5)C4)c3)nc12 [Example 282, 2,2-dimethyl-1-{2-[3-(2-oxa-6-aza-spiro[3.3]hept-6-yl)-phenyl]-5H-pyrrolo[2,3-b]pyrazin-7-yl}-propan-1-one] | 260 to 262 °C
